One test has as its system T1, E. coli ATCC 25922.
T1 construct: ATCC 25922
Nature of the test: microbe, parasite or virus in culture. On the set-up: broth microdilution MIC of antibiotic alone (checkerboard assay). Conditions: Escherichia coli, ATCC25922; colistin alone. An excerpt:
(§1) The fractional inhibitory concentration index (FICI) value was used to evaluate the drug interaction of two compounds (A and B) and calculated as the sum of FICIA and FICIB. […] To validate the potentiation, we further evaluated these combinations on several types of Gram-negative bacteria, including drug-sensitive strains, MCR-producing Enterobacterales and MBL-positive Enterobacteriaceae. […] These NDM-positive Gram-negative pathogens carry blaNDM-1 or blaNDM-5 gene and are meropenem-resistant with MICs of 16-32 µg/mL. […] To explore the synergistic bactericidal activity of this combination, time-dependent killing curves for different MCR-positive Gram-negative bacteria were also determined.

The subject of test [1] is T2, E. coli B2.
T2 construct: B2
Kind of test: microbe, parasite or virus in culture. On the set-up: broth microdilution MIC of antibiotic alone (checkerboard assay). Conditions: Escherichia coli, antibiotic alone.
Description: as §1

The next test deals with T3, E. coli CP131 (mcr-3).
T3 construct: CP131 (mcr-3)
Kind of test: microbe, parasite or virus in culture. On the set-up: broth microdilution MIC of antibiotic alone (checkerboard assay). To be noted: Escherichia coli; colistin alone.
Description: as §1

For a further test, the system named is T4, E. coli DH5α (PUC19).
T4 construct: DH5α (pUC19)
Kind of test: microbe, parasite or virus in culture. On the set-up: broth microdilution MIC of antibiotic alone (checkerboard assay). Conditions: Escherichia coli; colistin alone.
Description: as §1

The test system of a further test is T5, E. coli G92 (mcr-1).
T5 construct: G92 (mcr-1)
Kind of test: microbe, parasite or virus in culture. Details: broth microdilution MIC of antibiotic alone (checkerboard assay). To be noted: Escherichia coli; colistin alone.
Description: as §1

Test [2] relates to T6, K. pneumoniae D120 (mcr-8).
T6 construct: D120 (mcr-8)
Nature of the test: microbe, parasite or virus in culture. On the set-up: broth microdilution MIC of antibiotic alone (checkerboard assay). To be noted: Klebsiella pneumoniae; colistin alone.
Description: as §1

The next test concerns T7, S. enterica ATCC 13076.
T7 construct: ATCC 13076
Kind of test: microbe, parasite or virus in culture. Details: broth microdilution MIC of antibiotic alone (checkerboard assay). To be noted: Salmonella enterica, ATCC13076; colistin alone.
Description: as §1

For test [3], the system named is T2, E. coli B2. Kind of test: microbe, parasite or virus in culture. On the set-up: checkerboard broth microdilution, antibiotic alone, absorbance at 600 nm. Conditions: antibiotic alone, without DSF; for MIC: Escherichia coli, B2. An excerpt: The fractional inhibitory concentration index (FICI) value was used to evaluate the drug interaction of two compounds (A and B) and calculated as the sum of FICIA and FICIB. […] To validate the potentiation, we further evaluated these combinations on several types of Gram-negative bacteria, including drug-sensitive strains, MCR-producing Enterobacterales and MBL-positive Enterobacteriaceae.

The subject of another test is NDM-positive E. coli C3. Kind of test: microbe, parasite or virus in culture. On the set-up: MIC of meropenem alone before serial passage (passage 0). To be noted: Escherichia coli, read-out: MICs of MEM, - DSF. The procedure: To learn more about whether the addition of DSF contributes to preventing the development of antibiotic resistance, we carried out the serial passage assays in an NDM- or MCR-positive bacteria after exposure to meropenem/colistin, DSF and their combination. […] The mutation prevention index (MPI) was determined via the equation of MPC/MIC, which represents the opening of the mutant selection window (MSW, concentration range between MIC and MPC). When the MSW is narrower, drug-resistant strains are less likely to develop.

The target of the next test is T8, NDM-5 (Escherichia coli, UniProt G3K399).
T8 construct: gene blaNDM-5
Nature of the test: purified NDM-[…]) enzyme inhibition assay, absorbance at […] nm. Type of test: biochemical.

Positions of bridges follow the written chain, without caps; N, C: chain ends. Non-standard residues stand in square brackets, D forms with d. Residues, ends and D or L forms follow the SMILES beside them. *: point of attachment. Heptanoyl(5-Me) = CCC(C)CCCC(=O)*; Dab = NCC[C@H](N)C(=O)O

T8 sequence (G3K399 29-270 limits assumed): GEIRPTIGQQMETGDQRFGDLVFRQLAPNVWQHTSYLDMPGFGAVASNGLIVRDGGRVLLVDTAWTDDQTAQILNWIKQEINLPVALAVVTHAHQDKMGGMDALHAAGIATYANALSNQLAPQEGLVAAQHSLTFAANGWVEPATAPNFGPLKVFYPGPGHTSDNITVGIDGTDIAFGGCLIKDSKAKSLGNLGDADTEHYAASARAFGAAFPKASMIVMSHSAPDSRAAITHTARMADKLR

With `CCC(C)CCCC(=O)N[C@@H](CCN)C(=O)N[C@H](C(=O)N[C@@H](CCN)C(=O)N[C@H]1CCNC(=O)[C@H]([C@@H](C)O)NC(=O)[C@H](CCN)NC(=O)[C@H](CCN)NC(=O)[C@H](CC(C)C)NC(=O)[C@@H](CC(C)C)NC(=O)[C@H](CCN)NC1=O)[C@@H](C)O` (stereo partly drawn) [Colistin] ({Heptanoyl(5-Me)}-[Dab]T[Dab][Dab][Dab][dL]L[Dab][Dab]T; lactam 4-C), the MIC in the test on E. coli ATCC 25922 amounted to 0.5 µg/mL; in the test with E. coli B2 [1], 8 µg/mL; in the test with E. coli CP131 (mcr-3) it was 2 µg/mL; in the test on E. coli DH5α (PUC19), 0.25 µg/mL; in the test on E. coli G92 (mcr-1), 4 µg/mL; in [2], 4 µg/mL. In the test with S. enterica ATCC 13076, the MIC was 0.125 µg/mL.
`C[C@@H](O)[C@H]1C(=O)N2C(C(=O)O)=C(S[C@@H]3CN[C@H](C(=O)N(C)C)C3)[C@H](C)[C@H]12` [Meropenem]: the MIC in the test on E. coli B2 [3] amounted to 32 µg/mL; in the test with NDM-positive E. coli C3, 8 µg/mL.
Regarding `CN[C@H](CC(C)C)C(=O)N[C@H]1C(=O)N[C@@H](CC(N)=O)C(=O)N[C@H]2C(=O)N[C@H]3C(=O)N[C@H](C(=O)N[C@H](C(=O)O)c4cc(O)cc(O)c4-c4cc3ccc4O)[C@H](O)c3ccc(c(Cl)c3)Oc3cc2cc(c3O[C@@H]2O[C@H](CO)[C@@H](O)[C@H](O)[C@H]2O[C@H]2C[C@](C)(N)[C@H](O)[C@H](C)O2)Oc2ccc(cc2Cl)[C@H]1O` [Vancomycin], in the test on E. coli B2 [3], the MIC is 64 µg/mL.
For the compound `CO[C@H]1/C=C/O[C@@]2(C)Oc3c(C)c(O)c4c(O)c(c(/C=N/N5CCN(C)CC5)c(O)c4c3C2=O)NC(=O)/C(C)=C\C=C\[C@H](C)[C@H](O)[C@@H](C)[C@@H](O)[C@@H](C)[C@H](OC(C)=O)[C@@H]1C` [Rifampicin], in the test with E. coli B2 [3], the “MIC^a” value was 128 µg/mL.
On to `CN(C)c1cc(NC(=O)CNC(C)(C)C)c(O)c2c1C[C@H]1C[C@H]3[C@H](N(C)C)C(O)=C(C(N)=O)C(=O)[C@@]3(O)C(O)=C1C2=O` [Tigecycline], for which the MIC in the test with E. coli B2 [3] came to 0.5 µg/mL.
Regarding `CCN(CC)C(=S)SSC(=S)N(CC)CC` [disulfiram], half-maximal inhibition on NDM-5 (IC50) required 95.5 µM.
In the case of `C[C@H]1c2cccc(O)c2C(=O)C2=C(O)[C@]3(O)C(=O)C(C(N)=O)=C(O)[C@@H](N(C)C)[C@@H]3[C@@H](O)[C@@H]21` [Doxycycline], the MIC with E. coli B2 [3] worked out at 32 µg/mL.

Source of the values: publication PMC10400630, “Resensitizing multidrug-resistant Gram-negative bacteria to carbapenems and colistin using disulfiram” (Communications Biology, 2023).
